# According to patent US9493446B2, “Orexin receptor antagonists which are [ortho bi-(hetero-)aryl]-[2-(meta bi-(hetero-)aryl)-pyrrolidin-1-yl]-methanone derivatives” (Actelion Pharmaceuticals Ltd, priority 2012, dated 2016):
# Like-named read-outs stand apart in the source and are kept apart here.
# Legend:
# orexin-1 = orexin-1 (Homo sapiens (Human), UniProt O43613); experiment: Intracellular calcium measurement (FLIPR), CHO cells expressing human orexin-1 receptor, 3 nM orexin-A; format: cell-based; settings: read-out: IC50 OX1
# Summary of the method: (§1)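 Antagonist is added 120 min before agonist. Fluo-4 AM-loaded CHO cells carry human orexin-1 or orexin-2 receptor, and calcium is read by FLIPR.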
# human orexin-2 receptor = human orexin-2 receptor (Homo sapiens (Human), UniProt O43614); experiment: Intracellular calcium measurement (FLIPR), CHO cells expressing human orexin-2 receptor, 3 nM orexin-A; format: cell-based; settings: read-out: IC50 OX2
# Summary of the method: as §1
# [1] = CHO cells expressing human orexin-1 receptor, FLIPR, 3 nM orexin-A, geometric mean if determined several times
# [2] = CHO cells expressing human orexin-2 receptor, FLIPR, 3 nM orexin-A, geometric mean if determined several times
# Sequence of orexin-1 (O43613 whole entry): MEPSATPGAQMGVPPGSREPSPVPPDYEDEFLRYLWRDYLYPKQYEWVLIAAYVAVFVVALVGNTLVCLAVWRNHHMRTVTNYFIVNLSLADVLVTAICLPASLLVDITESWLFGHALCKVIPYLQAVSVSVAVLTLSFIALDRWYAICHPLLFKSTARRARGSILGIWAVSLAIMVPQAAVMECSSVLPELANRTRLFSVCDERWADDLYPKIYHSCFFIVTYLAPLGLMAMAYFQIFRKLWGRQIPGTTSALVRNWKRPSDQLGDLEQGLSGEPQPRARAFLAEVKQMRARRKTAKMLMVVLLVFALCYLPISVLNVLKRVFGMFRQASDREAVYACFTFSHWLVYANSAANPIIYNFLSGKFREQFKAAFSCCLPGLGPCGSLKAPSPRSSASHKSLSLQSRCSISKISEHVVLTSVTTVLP
# Sequence of human orexin-2 receptor (O43614 whole entry): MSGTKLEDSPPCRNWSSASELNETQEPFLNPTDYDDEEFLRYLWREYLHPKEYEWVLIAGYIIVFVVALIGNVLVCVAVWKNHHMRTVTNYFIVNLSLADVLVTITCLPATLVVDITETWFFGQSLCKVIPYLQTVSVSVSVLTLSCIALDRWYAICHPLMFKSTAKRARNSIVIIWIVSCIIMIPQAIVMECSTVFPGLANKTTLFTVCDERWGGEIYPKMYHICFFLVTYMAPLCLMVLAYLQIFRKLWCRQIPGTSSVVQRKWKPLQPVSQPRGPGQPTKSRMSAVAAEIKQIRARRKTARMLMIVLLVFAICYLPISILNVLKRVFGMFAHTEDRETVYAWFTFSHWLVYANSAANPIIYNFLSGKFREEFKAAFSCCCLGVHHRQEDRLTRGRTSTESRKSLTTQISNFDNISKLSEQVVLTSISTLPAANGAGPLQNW
IC50 (orexin-1; [1]) [nM],IC50 (human orexin-2 receptor; [2]) [nM],Compound,IC50 (orexin-1) [nM],IC50 (human orexin-2 receptor) [nM]
549,132,"O=C(c1ccccc1-n1nccn1)N1CCC[C@H]1c1nc(-c2ccccc2C(F)(F)F)no1 [compound 178, (2-[1,2,3]Triazol-2-yl-phenyl)-{(S)-2-[3-(2-trifluoromethyl-phenyl)-[1,2,4]oxadiazol-5-yl]-pyrrolidin-1-yl}-methanone]",,
183,126,"Cc1ccc(C(=O)N2CCC[C@H]2c2nc(-c3ccccc3C(F)(F)F)no2)c(-n2nccn2)c1 [compound 180, (4-Methyl-2-[1,2,3]triazol-2-yl-phenyl)-{(S)-2-[3-(2-trifluoromethyl-phenyl)-[1,2,4]oxadiazol-5-yl]-pyrrolidin-1-yl}-methanone]",,
276,29,"COc1cc(C(=O)N2CCC[C@H]2c2nc(-c3ccccc3C(F)(F)F)no2)c(-n2nccn2)cc1C [compound 182, (5-Methoxy-4-methyl-2-[1,2,3]triazol-2-yl-phenyl)-{(S)-2-[3-(2-trifluoromethyl-phenyl)-[1,2,4]oxadiazol-5-yl]-pyrrolidin-1-yl}-methanone]",,
523,75,"O=C(c1ccccc1-n1nccn1)N1CCC[C@H]1c1nc(-c2ccccc2OC(F)F)no1 [compound 185, {(S)-2-[3-(2-Difluoromethoxy-phenyl)-[1,2,4]oxadiazol-5-yl]-pyrrolidin-1-yl}-(2-[1,2,3]triazol-2-yl-phenyl)-methanone]",,
79,31,"Cc1ccc(C(=O)N2CCC[C@H]2c2nc(-c3ccccc3OC(F)F)no2)c(-n2nccn2)c1 [compound 187, {(S)-2-[3-(2-Difluoromethoxy-phenyl)-[1,2,4]oxadiazol-5-yl]-pyrrolidin-1-yl}-(4-methyl-2-[1,2,3]triazol-2-yl-phenyl)-methanone]",,
135,15,"COc1c(F)cccc1-c1noc([C@@H]2CCCN2C(=O)c2cc(C)cc(C)c2-n2nccn2)n1 [compound 192, (3,5-Dimethyl-2-[1,2,3]triazol-2-yl-phenyl)-{(S)-2-[3-(3-fluoro-2-methoxy-phenyl)-[1,2,4]oxadiazol-5-yl]-pyrrolidin-1-yl}-methanone]",,
263,25,"COc1c(F)cccc1-c1noc([C@@H]2CCCN2C(=O)c2ccccc2-n2nccn2)n1 [compound 193, {(S)-2-[3-(3-Fluoro-2-methoxy-phenyl)-[1,2,4]oxadiazol-5-yl]-pyrrolidin-1-yl}-(2-[1,2,3]triazol-2-yl-phenyl)-methanone]",,
71,11,"COc1c(F)cccc1-c1noc([C@@H]2CCCN2C(=O)c2ccc(C)cc2-n2nccn2)n1 [compound 195, {(S)-2-[3-(3-Fluoro-2-methoxy-phenyl)-[1,2,4]oxadiazol-5-yl]-pyrrolidin-1-yl}-(4-methyl-2-[1,2,3]triazol-2-yl-phenyl)-methanone]",,
10,2,"COc1c(F)cccc1-c1noc([C@@H]2CCCN2C(=O)c2cc(C)c(C)cc2-n2nccn2)n1 [compound 196, (4,5-Dimethyl-2-[1,2,3]triazol-2-yl-phenyl)-{(S)-2-[3-(3-fluoro-2-methoxy-phenyl)-[1,2,4]oxadiazol-5-yl]-pyrrolidin-1-yl}-methanone]",,
354,93,"COc1c(F)cccc1-c1noc([C@@H]2CCCN2C(=O)c2cccc(C)c2-n2nccn2)n1 [compound 197, {(S)-2-[3-(3-Fluoro-2-methoxy-phenyl)-[1,2,4]oxadiazol-5-yl]-pyrrolidin-1-yl}-(3-methyl-2-[1,2,3]triazol-2-yl-phenyl)-methanone]",,
83,12,"COc1ccc(-n2nccn2)c(C(=O)N2CCC[C@H]2c2nc(-c3cccc(F)c3OC)no2)c1 [compound 199, {(S)-2-[3-(3-Fluoro-2-methoxy-phenyl)-[1,2,4]oxadiazol-5-yl]-pyrrolidin-1-yl}-(5-methoxy-2-[1,2,3]triazol-2-yl-phenyl)-methanone]",,
307,32,"COc1c(F)cccc1-c1noc([C@@H]2CCCN2C(=O)c2cc(F)ccc2-n2nccn2)n1 [compound 200, {(S)-2-[3-(3-Fluoro-2-methoxy-phenyl)-[1,2,4]oxadiazol-5-yl]-pyrrolidin-1-yl}-(5-fluoro-2-[1,2,3]triazol-2-yl-phenyl)-methanone]",,
27,2,"COc1cc(C(=O)N2CCC[C@H]2c2nc(-c3cccc(F)c3OC)no2)c(-n2nccn2)cc1C [compound 201, {(S)-2-[3-(3-Fluoro-2-methoxy-phenyl)-[1,2,4]oxadiazol-5-yl]-pyrrolidin-1-yl}-(5-methoxy-4-methyl-2-[1,2,3]triazol-2-yl-phenyl)-methanone]",,

# Further lines, the compound ahead of its results:
Compound,IC50 (orexin-1; [1]) [nM],IC50 (human orexin-2 receptor; [2]) [nM],IC50 (orexin-1) [nM],IC50 (human orexin-2 receptor) [nM]
"COc1cc(C(=O)N2CCC[C@H]2c2nc(-c3ccccc3OC(F)(F)F)no2)c(-n2nccn2)cc1F [compound 174, (4-Fluoro-5-methoxy-2-[1,2,3]triazol-2-yl-phenyl)-{(S)-2-[3-(2-trifluoromethoxy-phenyl)-[1,2,4]oxadiazol-5-yl]-pyrrolidin-1-yl}-methanone]",174,70,,
"Cc1ccc(-c2ncco2)c(C(=O)N2CCC[C@H]2c2nc(-c3ccccc3OC(F)(F)F)no2)c1 [compound 175, (5-Methyl-2-oxazol-2-yl-phenyl)-{(S)-2-[3-(2-trifluoromethoxy-phenyl)-[1,2,4]oxadiazol-5-yl]-pyrrolidin-1-yl}-methanone]",14,12,,
"Cc1cc(F)cc(C(=O)N2CCC[C@H]2c2nc(-c3ccccc3OC(F)(F)F)no2)c1-n1nccn1 [compound 176, (5-Fluoro-3-methyl-2-[1,2,3]triazol-2-yl-phenyl)-{(S)-2-[3-(2-trifluoromethoxy-phenyl)-[1,2,4]oxadiazol-5-yl]-pyrrolidin-1-yl}-methanone]",258,151,,
"COc1cc(C(=O)N2CCC[C@H]2c2nc(-c3ccccc3OC(F)(F)F)no2)c(-n2nccn2)cc1OC [compound 177, (4,5-Dimethoxy-2-[1,2,3]triazol-2-yl-phenyl)-{(S)-2-[3-(2-trifluoromethoxy-phenyl)-[1,2,4]oxadiazol-5-yl]-pyrrolidin-1-yl}-methanone]",126,140,,
O=C(c1cc(Cl)ccc1-n1nccn1)N1CCC[C@H]1c1nc(-c2ccccc2C(F)(F)F)no1 [compound 179],,189,371,
"Cc1cc(C(=O)N2CCC[C@H]2c2nc(-c3ccccc3C(F)(F)F)no2)c(-n2nccn2)cc1C [compound 181, (4,5-Dimethyl-2-[1,2,3]triazol-2-yl-phenyl)-{(S)-2-[3-(2-trifluoromethyl-phenyl)-[1,2,4]oxadiazol-5-yl]-pyrrolidin-1-yl}-methanone]",86,37,,
"O=C(c1cccc(F)c1-c1ccn[nH]1)N1CCC[C@H]1c1nc(-c2ccccc2C(F)(F)F)no1 [compound 183, [3-Fluoro-2-(2H-pyrazol-3-yl)-phenyl]-{(S)-2-[3-(2-trifluoromethyl-phenyl)-[1,2,4]oxadiazol-5-yl]-pyrrolidin-1-yl}-methanone]",190,91,,
"Cc1ccc(-c2ccccn2)c(C(=O)N2CCC[C@H]2c2nc(-c3ccccc3C(F)(F)F)no2)c1 [compound 184, (5-Methyl-2-pyridin-2-yl-phenyl)-{(S)-2-[3-(2-trifluoromethyl-phenyl)-[1,2,4]oxadiazol-5-yl]-pyrrolidin-1-yl}-methanone]",311,133,,
O=C(c1cc(Cl)ccc1-n1nccn1)N1CCC[C@H]1c1nc(-c2ccccc2OC(F)F)no1 [compound 186],138,17,,
"Cc1cc(C(=O)N2CCC[C@H]2c2nc(-c3ccccc3OC(F)F)no2)c(-n2nccn2)cc1C [compound 188, {(S)-2-[3-(2-Difluoromethoxy-phenyl)-[1,2,4]oxadiazol-5-yl]-pyrrolidin-1-yl}-(4,5-dimethyl-2-[1,2,3]triazol-2-yl-phenyl)-methanone]",20,3,,
"COc1cc(C(=O)N2CCC[C@H]2c2nc(-c3ccccc3OC(F)F)no2)c(-n2nccn2)cc1C [compound 189, {(S)-2-[3-(2-Difluoromethoxy-phenyl)-[1,2,4]oxadiazol-5-yl]-pyrrolidin-1-yl}-(5-methoxy-4-methyl-2-[1,2,3]triazol-2-yl-phenyl)-methanone]",47,5,,
"O=C(c1cccc(F)c1-c1ccn[nH]1)N1CCC[C@H]1c1nc(-c2ccccc2OC(F)F)no1 [compound 190, {(S)-2-[3-(2-Difluoromethoxy-phenyl)-[1,2,4]oxadiazol-5-yl]-pyrrolidin-1-yl}-[3-fluoro-2-(2H-pyrazol-3-yl)-phenyl]-methanone]",53,14,,
"Cc1ccc(-c2ccccn2)c(C(=O)N2CCC[C@H]2c2nc(-c3ccccc3OC(F)F)no2)c1 [compound 191, {(S)-2-[3-(2-Difluoromethoxy-phenyl)-[1,2,4]oxadiazol-5-yl]-pyrrolidin-1-yl}-(5-methyl-2-pyridin-2-yl-phenyl)-methanone]",119,27,,
"COc1c(F)cccc1-c1noc([C@@H]2CCCN2C(=O)c2cccc(F)c2-c2ccn[nH]2)n1 [compound 202, {(S)-2-[3-(3-Fluoro-2-methoxy-phenyl)-[1,2,4]oxadiazol-5-yl]-pyrrolidin-1-yl}-[3-fluoro-2-(2H-pyrazol-3-yl)-phenyl]-methanone]",53,10,,
"COc1c(F)cccc1-c1noc([C@@H]2CCCN2C(=O)c2cc(C)ccc2-c2ccccn2)n1 [compound 203, {(S)-2-[3-(3-Fluoro-2-methoxy-phenyl)-[1,2,4]oxadiazol-5-yl]-pyrrolidin-1-yl}-(5-methyl-2-pyridin-2-yl-phenyl)-methanone]",56,16,,
COc1c(F)cccc1-c1noc([C@@H]2CCCN2C(=O)c2ccc(Cl)cc2-n2nccn2)n1 [compound 204],65,,,10
